In patent US20250188040A1, “PHARMACEUTICAL COMPOSITIONS COMPRISING WRN HELICASE INHIBITORS” (Vividion Therapeutics, Inc., priority 2022, published 2025):
Like-named read-outs stand apart in the source and are kept apart here.

Tests used:
SW480 cells = test: Cell growth assay (CellTiter-Glo 2.0), SW480 MSS cell line; details: Homo sapiens, SW480, 120 h, read-out: Cell Growth Inhibition GI50 SW480
WRN C727 = target: T1, WRN C727 (Homo sapiens, UniProt Q14191); test: Target engagement, in vitro (lysate), OCI-AML2; assay type: binding; details: read-out: OCI-AML2 WRN C727 TE50 in vitro (lysate)
T1 construct: endogenous in cells; host or cells: OCI-AML2
T1 sequence (Q14191 whole entry): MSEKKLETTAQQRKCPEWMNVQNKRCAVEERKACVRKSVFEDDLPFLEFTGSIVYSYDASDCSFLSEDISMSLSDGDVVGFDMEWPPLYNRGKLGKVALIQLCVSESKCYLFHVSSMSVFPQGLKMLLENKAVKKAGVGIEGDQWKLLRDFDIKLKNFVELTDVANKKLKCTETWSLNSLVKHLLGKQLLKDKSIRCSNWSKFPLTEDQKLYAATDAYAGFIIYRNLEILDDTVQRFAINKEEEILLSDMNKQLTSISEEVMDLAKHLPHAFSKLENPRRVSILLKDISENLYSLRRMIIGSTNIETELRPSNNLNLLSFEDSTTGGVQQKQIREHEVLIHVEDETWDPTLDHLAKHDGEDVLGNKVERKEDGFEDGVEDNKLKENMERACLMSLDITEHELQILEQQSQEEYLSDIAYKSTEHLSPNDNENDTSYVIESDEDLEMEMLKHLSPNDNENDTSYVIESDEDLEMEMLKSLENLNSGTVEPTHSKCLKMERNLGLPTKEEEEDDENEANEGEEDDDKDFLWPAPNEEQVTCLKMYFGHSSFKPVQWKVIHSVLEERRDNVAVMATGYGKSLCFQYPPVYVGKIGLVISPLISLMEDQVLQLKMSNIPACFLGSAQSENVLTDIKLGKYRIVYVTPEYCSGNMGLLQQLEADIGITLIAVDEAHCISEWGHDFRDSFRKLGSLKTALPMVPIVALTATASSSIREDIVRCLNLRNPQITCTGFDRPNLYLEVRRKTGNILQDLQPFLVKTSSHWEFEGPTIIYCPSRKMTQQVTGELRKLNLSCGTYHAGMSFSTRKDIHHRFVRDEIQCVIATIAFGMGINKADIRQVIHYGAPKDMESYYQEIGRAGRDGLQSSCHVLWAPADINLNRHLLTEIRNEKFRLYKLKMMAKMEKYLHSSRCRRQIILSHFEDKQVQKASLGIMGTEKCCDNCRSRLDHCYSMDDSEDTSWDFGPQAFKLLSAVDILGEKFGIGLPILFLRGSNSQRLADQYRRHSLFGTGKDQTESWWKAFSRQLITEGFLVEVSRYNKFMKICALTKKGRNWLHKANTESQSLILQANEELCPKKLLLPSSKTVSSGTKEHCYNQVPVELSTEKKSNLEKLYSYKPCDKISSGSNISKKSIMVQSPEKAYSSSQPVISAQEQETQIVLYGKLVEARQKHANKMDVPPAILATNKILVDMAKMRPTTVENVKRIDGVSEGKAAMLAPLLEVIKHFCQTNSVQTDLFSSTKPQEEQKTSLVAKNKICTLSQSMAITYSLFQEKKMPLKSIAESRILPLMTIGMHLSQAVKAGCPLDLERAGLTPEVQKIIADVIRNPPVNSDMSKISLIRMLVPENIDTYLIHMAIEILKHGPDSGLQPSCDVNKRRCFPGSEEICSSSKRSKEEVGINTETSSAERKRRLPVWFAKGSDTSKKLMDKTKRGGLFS
Outline: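 Percent engagement of WRN C727 is expressed against DMSO-treated samples, measured by PRM mass spectrometry of streptavidin-enriched, probe-tagged tryptic peptides. Compound dose responses preceded probe labelling of solvent-exposed cysteines, in either living OCI-AML2 cells or their lysates.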

[1] = target: hWRN(519-1227)_C-H3CV-GFP-10His (Homo sapiens, UniProt Q14191); test: Helicase Assay for WRN Inhibition (ATP-dependent, fluorescence based)
Sequence of hWRN(519-1227)_C-H3CV-GFP-10His (Q14191 519-1227): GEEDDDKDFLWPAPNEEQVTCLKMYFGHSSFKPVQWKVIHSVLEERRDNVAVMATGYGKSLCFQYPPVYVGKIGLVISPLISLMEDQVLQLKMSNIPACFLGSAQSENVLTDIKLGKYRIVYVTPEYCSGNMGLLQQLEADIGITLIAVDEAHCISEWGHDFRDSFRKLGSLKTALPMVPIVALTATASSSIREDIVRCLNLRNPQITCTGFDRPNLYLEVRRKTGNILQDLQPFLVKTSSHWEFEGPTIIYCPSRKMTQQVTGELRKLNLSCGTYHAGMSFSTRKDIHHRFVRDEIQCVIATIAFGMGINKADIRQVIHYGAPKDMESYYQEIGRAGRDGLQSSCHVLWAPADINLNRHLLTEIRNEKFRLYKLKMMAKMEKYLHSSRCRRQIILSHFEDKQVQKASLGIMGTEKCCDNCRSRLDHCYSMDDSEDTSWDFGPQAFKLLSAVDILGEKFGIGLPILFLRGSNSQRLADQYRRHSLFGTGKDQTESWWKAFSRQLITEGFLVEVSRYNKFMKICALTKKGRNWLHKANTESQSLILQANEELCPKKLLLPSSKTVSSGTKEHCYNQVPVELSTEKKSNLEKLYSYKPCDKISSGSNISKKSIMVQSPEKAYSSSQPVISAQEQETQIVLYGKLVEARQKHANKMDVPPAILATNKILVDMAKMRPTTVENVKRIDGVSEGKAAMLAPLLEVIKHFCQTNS

HCT 116 cells = test: Cell growth assay (CellTiter-Glo 2.0), HCT 116 MSI-H cell line; details: Homo sapiens, HCT-116, 120 h, read-out: Cell Growth Inhibition GI50 HCT-116
[2] = WRN Helicase IC50, 30 min preincubation with ATP, 30 min reaction

SMILES | GI50 (SW480 cells) [µM] | IC50 (WRN C727) [µM] | IC50 [1, 2] [µM] | GI50 (HCT 116 cells) [µM] | IC50 [1] [µM]
C[C@@H](/C=C/S(C)(=O)=O)NC(=O)c1ccc(C(C)(F)F)nc1Oc1ccccc1 [Example 232, (S,E)-6-(1,1-difluoroethyl)-N-(4-(methylsulfonyl)but-3-en-2-yl)-2-phenoxynicotinamide] | 28.1 | 2.36 | 0.3 | 0.0699 | 
Cn1ccc2cc(C(=O)N[C@H](/C=C/S(C)(=O)=O)C3CC3)c(Oc3ccccc3)nc21 [Example 250, (S,E)-N-(1-cyclopropyl-3-(methylsulfonyl)allyl)-1-methyl-6-phenoxy-1H-pyrrolo[2,3-b]pyridine-5-carboxamide] | 44.9 | 0.62 | 4.5 | 1.14 | 
Cn1ncc2cc(C(=O)N[C@H](/C=C/S(C)(=O)=O)C3CC3)c(Oc3ccccc3)nc21 [Example 252, (S,E)-N-(1-cyclopropyl-3-(methylsulfonyl)allyl)-1-methyl-6-phenoxy-1H-pyrazolo[3,4-b]pyridine-5-carboxamide] | > 30 | 0.35 | 12 | 2.1 | 
C[C@@H](/C=C/S(C)(=O)=O)NC(=O)c1cnc(CC(F)(F)F)nc1Oc1ccccc1 [Example 260, (S,E)-N-(4-(methylsulfonyl)but-3-en-2-yl)-4-phenoxy-2-(2,2,2-trifluoroethyl)pyrimidine-5-carboxamide] | 41 | > 100 | 8.2 | 1.8 | 
C=C(C#N)CNC(=O)c1cnc(C2CCCC2)nc1Oc1ccccc1 [Example 268, N-(2-cyanoallyl)-2-cyclopentyl-4-phenoxypyrimidine-5-carboxamide] | 14 | 23.3 | 1.7 | 2.1 | 
C=C(C#N)CNC(=O)c1cnc(C(C)(C)C)nc1Oc1ccccc1 [Example 270, 2-(tert-butyl)-N-(2-cyanoallyl)-4-phenoxypyrimidine-5-carboxamide] | 11 | 8.53 | 0.91 | 0.51 | 

More lines, now with the values ahead:

GI50 (SW480 cells) [µM] | IC50 (WRN C727) [µM] | IC50 [1, 2] [µM] | GI50 (HCT 116 cells) [µM] | IC50 [1] [µM] | SMILES
17 | 0.48 | 0.072 | 0.0199 |  | CC(F)(F)c1ccc(C(=O)N[C@H](/C=C/S(C)(=O)=O)C2CC2)c(Oc2ccccc2)n1 [Example 233, (S,E)-N-(1-cyclopropyl-3-(methylsulfonyl)allyl)-6-(1,1-difluoroethyl)-2-phenoxynicotinamide]
8.3 | 70 | 0.0893 | 0.0394 |  | CC(F)(F)c1nc(Oc2ccccc2)c(C(=O)N[C@H](/C=C/S(C)(=O)=O)C2CC2)cc1F [Example 235, (S,E)-N-(1-cyclopropyl-3-(methylsulfonyl)allyl)-6-(1,1-difluoroethyl)-5-fluoro-2-phenoxynicotinamide]
> 10 | 30 |  | 6.5 | 8.5 | C[C@@H](/C=C/S(C)(=O)=O)NC(=O)c1cc2c(cc1Oc1ccccc1)CCC2=O [Example 247, (S,E)-N-(4-(methylsulfonyl)but-3-en-2-yl)-3-oxo-6-phenoxy-2,3-dihydro-1H-indene-5-carboxamide]
> 12.7 | 3.77 | 1.14 | 0.329 |  | C[C@@H](/C=C/S(C)(=O)=O)NC(=O)c1c(N)nc(C2CCCC2)nc1Oc1ccccc1 [Example 255, (S,E)-4-amino-2-cyclopentyl-N-(4-(methylsulfonyl)but-3-en-2-yl)-6-phenoxypyrimidine-5-carboxamide]
38 | 1.79 | 0.88 | 0.35 |  | CS(=O)(=O)/C=C/[C@@H](NC(=O)c1cnc(CC(F)(F)F)nc1Oc1ccccc1)C1CC1 [Example 261, (S,E)-N-(1-cyclopropyl-3-(methylsulfonyl)allyl)-4-phenoxy-2-(2,2,2-trifluoroethyl)pyrimidine-5-carboxamide]
17.9 | 25 |  | 3.3 | 6.1 | C=C(C#N)CNC(=O)c1cnc(C2CC2)nc1Oc1ccccc1 [Example 269, N-(2-cyanoallyl)-2-cyclopropyl-4-phenoxypyrimidine-5-carboxamide]
